The values that follow come from US9145351B2, “Azole derivatives, methods for producing the same, intermediate thereof, agro-horticultural agents” (KUREHA CORPORATION, priority 2009, dated 2015).

What all share (type): cell-based
The test system of test [1] is Ustilago nuda. The test can be described thus: Plate medium fungicidal assay, barley loose smut U.n (Experimental Example 5). Here is the method:
(§1) In this Experimental Example, the fungicidal effects of the inventive compounds on various phytopathogenic fungi for plants and hazardous microorganism for industrial materials were examined by the methods described below. Each inventive compound was dissolved in 2 ml of dimethyl sulfoxide. 0.6 ml of this solution was added to 60 nil of a PDA medium (potato dextrose agar medium) at about 60 degrees C., which was mixed thoroughly in a 100-ml conical flask, and poured into a dish, where it was solidified, thereby obtaining a plate medium containing the inventive compound at 50 mg/L and 5 mg/L. On the other hand, a subject microorganism previously cultured on a plate medium was cut out using a cork borer whose diameter was 4 mm, and inoculated to the test compound-containing plate medium described above. […] The growth degree of the microorganism on the test compound-containing plate medium thus observed was compared with the growth degree of the microorganism in the untreated group, and % mycelial growth inhibition was calculated by the following equation. R=100(dc−dt)/dc wherein R=% mycelial extension inhibition, dc=flora diameter in untreated plate, dt=flora diameter in treated plate. The results obtained as described above were evaluated as one of the 5 grades according to the following criteria. […] Barley loose smut (Ustilago nuda) U.n

Test [2] deals with Fusarium oxysporum. The experiment in a line: Plate medium fungicidal assay, cucumber fusarium wilt F.c (Experimental Example 5). Here is the method:
as §1, with “Cucumber fusarium wilt (Fusarium oxysporum) F.c” for “Barley loose smut (Ustilago nuda) U.n”

Test [3] relates to Alternaria alternata. The experiment in a line: Plate medium fungicidal assay, Alternaria blotch A.m (Experimental Example 5). The procedure: as §1, with “Alternaria blotch (Alternaria alternata) A.m” for “Barley loose smut (Ustilago nuda) U.n”
For test [4], the system named is Pyricularia oryzae. The test can be described thus: microbe, parasite or virus in culture.
The subject of test [5] is Phaeosphaeria nodorum. The test can be described thus: Plate medium fungicidal assay, wheat Septoria nodorum blotch P.n (Experimental Example 5). The procedure: as §1, with “Wheat Septoria nodorum blotch (Phaeosphaeria nodorum) P.n” for “Barley loose smut (Ustilago nuda) U.n”
[6] abbreviates: plate medium containing compound at 5 mg/L.
The mark [7] stands for this setting: plate medium containing compound at 50 mg/L.

As for `C[C@]1(CCl)CC[C@@H](Cc2ccc(-c3ccccc3)cc2)[C@]1(O)Cn1cncn1` (relative stereo) [Compound I-82], the “Growth inhibition grade, U.n” value in test [1] (setting [6]) and in test [1] (setting [7]) was 5 (% Mycerial growth inhibition of 80% or higher) each time. Moreover, the “Growth inhibition grade, F.c” value in test [2] (setting [6]) and in test [2] (setting [7]) was 5 (% Mycerial growth inhibition of 80% or higher) in each case. Moreover, the “Growth inhibition grade, A.m” value in test [3] (setting [6]) and in test [3] (setting [7]) was 5 (% Mycerial growth inhibition of 80% or higher) in each case. Besides, the “Growth inhibition grade, P.o” value in test [4] (setting [6]) and in test [4] (setting [7]) was 5 (% Mycerial growth inhibition of 80% or higher) in each case. The “Growth inhibition grade, P.n” value in test [5] (setting [6]) and in test [5] (setting [7]) was 5 (% Mycerial growth inhibition of 80% or higher) in each case.
In the case of `C[C@]1(CCl)CC[C@@H](Cc2ccc(OC(F)(F)F)cc2)[C@]1(O)Cn1cncn1` (relative stereo) [Compound I-79], the “Growth inhibition grade, U.n” value in test [1] (setting [6]) and in test [1] (setting [7]) was 5 (% Mycerial growth inhibition of 80% or higher) in each case. Besides, the “Growth inhibition grade, F.c” value in test [2] (setting [6]) and in test [2] (setting [7]) was 5 (% Mycerial growth inhibition of 80% or higher) in each case. Moreover, the “Growth inhibition grade, A.m” value in test [3] (setting [6]) and in test [3] (setting [7]) was 5 (% Mycerial growth inhibition of 80% or higher) throughout. In addition, the “Growth inhibition grade, P.o” value in test [4] (setting [6]) and in test [4] (setting [7]) was 5 (% Mycerial growth inhibition of 80% or higher) throughout. For the same compound, the “Growth inhibition grade, P.n” value in test [5] (setting [6]) and in test [5] (setting [7]) was 5 (% Mycerial growth inhibition of 80% or higher) each time.
Regarding `C[C@]1(CCl)CC[C@H](Cc2cccc(Cl)c2)[C@]1(O)Cn1cncn1` (relative stereo) [Compound I-374], the “Growth inhibition grade, U.n” value is recorded as 4 (% Mycerial growth inhibition of less than 80 to 60% or higher) in test [1] (plate medium, 5 mg/L) and 5 (% Mycerial growth inhibition of 80% or higher) in test [1] (plate medium, 50 mg/L). The “Growth inhibition grade, F.c” value is 5 (% Mycerial growth inhibition of 80% or higher) in test [2] (plate medium, 5 mg/L) and 5 (% Mycerial growth inhibition of 80% or higher) in test [2] (plate medium, 50 mg/L). Further, the “Growth inhibition grade, A.m” value in test [3] (plate medium, 5 mg/L) is 4 (% Mycerial growth inhibition of less than 80 to 60% or higher); in test [3] (plate medium, 50 mg/L), 5 (% Mycerial growth inhibition of 80% or higher). Besides, the “Growth inhibition grade, P.o” value in test [4] (plate medium, 5 mg/L) was 5 (% Mycerial growth inhibition of 80% or higher); in test [4] (plate medium, 50 mg/L), 5 (% Mycerial growth inhibition of 80% or higher). The “Growth inhibition grade, P.n” value in test [5] (plate medium, 5 mg/L) is recorded as 5 (% Mycerial growth inhibition of 80% or higher); in test [5] (plate medium, 50 mg/L), 5 (% Mycerial growth inhibition of 80% or higher).
Regarding `CC1(C)CCC(Cc2ccc(Cl)cc2)C1(O)Cn1ncnc1S` (racemic) [compound (2)], the “Growth inhibition grade, U.n” value in test [1] (plate medium, 5 mg/L) is listed as 1 (% Mycerial growth inhibition of less than 20%); in test [1] (plate medium, 50 mg/L), 3 (% Mycelial growth inhibition of less than 60 to 40% or higher). Also, the “Growth inhibition grade, F.c” value is recorded as 3 (% Mycelial growth inhibition of less than 60 to 40% or higher) in test [2] (plate medium, 5 mg/L) and 4 (% Mycerial growth inhibition of less than 80 to 60% or higher) in test [2] (plate medium, 50 mg/L). Further, the “Growth inhibition grade, A.m” value in test [3] (plate medium, 5 mg/L) is on record as 4 (% Mycerial growth inhibition of less than 80 to 60% or higher); in test [3] (plate medium, 50 mg/L), 4 (% Mycerial growth inhibition of less than 80 to 60% or higher). Besides, the “Growth inhibition grade, P.o” value in test [4] (plate medium, 5 mg/L) is 4 (% Mycerial growth inhibition of less than 80 to 60% or higher); in test [4] (plate medium, 50 mg/L) it was 4 (% Mycerial growth inhibition of less than 80 to 60% or higher). Moreover, the “Growth inhibition grade, P.n” value in test [5] (plate medium, 5 mg/L) was 3 (% Mycelial growth inhibition of less than 60 to 40% or higher); in test [5] (plate medium, 50 mg/L), 4 (% Mycerial growth inhibition of less than 80 to 60% or higher).
For `C[C@@]1(CCl)CC[C@@H](Cc2ccc(Cl)cc2)[C@]1(O)Cn1cncn1` (racemic) [Compound I-101], the “Growth inhibition grade, U.n” value in test [1] (setting [6]) and in test [1] (setting [7]) was 5 (% Mycerial growth inhibition of 80% or higher) each time. Also, the “Growth inhibition grade, F.c” value in test [2] (setting [6]) and in test [2] (setting [7]) was 5 (% Mycerial growth inhibition of 80% or higher) throughout. For the same compound, the “Growth inhibition grade, A.m” value in test [3] (setting [6]) and in test [3] (setting [7]) was 5 (% Mycerial growth inhibition of 80% or higher) in each case. The “Growth inhibition grade, P.o” value in test [4] (setting [6]) and in test [4] (setting [7]) was 5 (% Mycerial growth inhibition of 80% or higher) each time. Also, the “Growth inhibition grade, P.n” value in test [5] (setting [6]) and in test [5] (setting [7]) was 5 (% Mycerial growth inhibition of 80% or higher) throughout.
Turning to `C[C@@]1(CCl)CC[C@@H](Cc2cccc(Cl)c2)[C@]1(O)Cn1cncn1` (relative stereo) [Compound I-174], the “Growth inhibition grade, U.n” value in test [1] (plate medium, 5 mg/L) is 4 (% Mycerial growth inhibition of less than 80 to 60% or higher); in test [1] (plate medium, 50 mg/L), 5 (% Mycerial growth inhibition of 80% or higher). For the same compound, the “Growth inhibition grade, F.c” value in test [2] (plate medium, 5 mg/L) is recorded as 5 (% Mycerial growth inhibition of 80% or higher); in test [2] (plate medium, 50 mg/L), 5 (% Mycerial growth inhibition of 80% or higher). Further, the “Growth inhibition grade, A.m” value is 5 (% Mycerial growth inhibition of 80% or higher) in test [3] (plate medium, 5 mg/L) and 5 (% Mycerial growth inhibition of 80% or higher) in test [3] (plate medium, 50 mg/L). Further, the “Growth inhibition grade, P.o” value was 5 (% Mycerial growth inhibition of 80% or higher) in test [4] (plate medium, 5 mg/L) and 5 (% Mycerial growth inhibition of 80% or higher) in test [4] (plate medium, 50 mg/L). For the same compound, the “Growth inhibition grade, P.n” value in test [5] (plate medium, 5 mg/L) is 5 (% Mycerial growth inhibition of 80% or higher); in test [5] (plate medium, 50 mg/L), 5 (% Mycerial growth inhibition of 80% or higher).
